Laboratory results reported in patent publication US6689773B2, “Uracil substituted phenyl sulfamoyl carboxamides” (BASF Aktiengesellschaft, priority 2000, dated 2004).

Legend:
Format in all cases: in vivo
[1] = system: TRZAW, Winter wheat, Tritium Aestivum, L. (Winter); experiment: Preemergence herbicidal evaluation (Example 148); settings: rating scale 0-9, two to four weeks after treatment
Method: (§1) The scale is based upon a visual observation of plant stand, vigor, malformation, size, chlorosis and overall plant appearance as compared with a control.
(§2) The herbicidal activity of the compounds of the present invention was evaluated by the following tests wherein the seeds of a variety of monocotyledonous and dicotyledonous plants were separately mixed with potting soil and planted on top of approximately one inch of soil in separate pint cups. After planting, the cups were sprayed with the selected aqueous acetone solution containing test compound in sufficient quantity to provide the equivalent of about 0.125 to 0.250 kg per hectare of test compound per cup. The treated cups were then placed on greenhouse benches, watered and cared for in accordance with conventional greenhouse procedures. From two to four weeks after treatment, the tests were terminated and each cup was examined and rated according to the rating system provided in Example 94. When more than one test was performed for a given compound, the data were averaged.

[2] = system: ABUTH, Velvetleaf, Abutilon theophrasti, Medic.; experiment: Preemergence herbicidal evaluation (Example 148); settings: rating scale 0-9, two to four weeks after treatment
Method: as §1, §2

[3] = system: ALOMY, Blackgrass, Alopecurus myosuroides; experiment: Preemergence herbicidal evaluation (Example 148); settings: rating scale 0-9, two to four weeks after treatment
Method: as §1, §2

[4] = system: SETVI, Green foxtail, Setaria viridis, (L.)Beau; experiment: Preemergence herbicidal evaluation (Example 148); settings: rating scale 0-9, two to four weeks after treatment
Method: as §1, §2

[5] = system: ZEAMX, Field corn, Zea mays L.; experiment: Preemergence herbicidal evaluation (Example 148); settings: rating scale 0-9, two to four weeks after treatment
Method: as §1, §2

[6] = system: AMBEL, Ragweed, Common, Ambrosia artemiisifolia, L.; experiment: Preemergence herbicidal evaluation (Example 148); settings: rating scale 0-9, two to four weeks after treatment
Method: as §1, §2

[7] = system: CHEAL, Lambsquarters, Chenopodium album, L. Common; experiment: Preemergence herbicidal evaluation (Example 148); settings: rating scale 0-9, two to four weeks after treatment
Method: as §1, §2

[8] = system: IPOHE, Morningglory, Ivyleaf, Ipomoea hederacea, (L)Jacq.; experiment: Preemergence herbicidal evaluation (Example 148); settings: rating scale 0-9, two to four weeks after treatment
Method: as §1, §2

[9] = system: ECHCG, Barnyardgrass, Echinochloa crusgalli, (L.)Beau; experiment: Preemergence herbicidal evaluation (Example 148); settings: rating scale 0-9, two to four weeks after treatment
Method: as §1, §2

[10] = system: DIGSA, Crabgrass, (Hairy) L, Digitaria sanguinalis, (L)Scop; experiment: Preemergence herbicidal evaluation (Example 148); settings: rating scale 0-9, two to four weeks after treatment
Method: as §1, §2

[11] = system: TRZAW, Winter wheat, Tritium Aestivum, L. (Winter); experiment: Postemergence herbicidal evaluation (Example 147); settings: rating scale 0-9, two to three weeks after treatment
Method: (§3) Seedling plants were grown in jiffy flats for about two weeks. The test compounds were dispersed in 80/20 acetone/water mixtures containing 1.0% SUN-IT®II, a methylated seed oil, in sufficient quantities to provide the equivalent of about 0.016 to 0.032 kg per hectare of active compound when applied to the plants through a spray nozzle operating at 40 psi for a predetermined time. After spraying, the plants were placed on greenhouse benches and were cared for in accordance with conventional greenhouse procedures. Approximately two to three weeks after treatment, the seedling plants were examined and rated according to the rating scale (0-9) set forth below. Where more than one test is involved for a given compound, the data are averaged. [table] The scale is based upon a visual observation of plant stand, vigor, malformation, size, chlorosis and overall plant appearance as compared with a control. Plant species employed in these evaluations are reported by header abbreviation, common name and scientific name. [table]

[12] = system: ABUTH, Velvetleaf, Abutilon theophrasti, Medic.; experiment: Postemergence herbicidal evaluation (Example 147); settings: rating scale 0-9, two to three weeks after treatment
Method: as §3

[13] = system: ALOMY, Blackgrass, Alopecurus myosuroides; experiment: Postemergence herbicidal evaluation (Example 147); settings: rating scale 0-9, two to three weeks after treatment
Method: as §3

[14] = system: SETVI, Green foxtail, Setaria viridis, (L.)Beau; experiment: Postemergence herbicidal evaluation (Example 147); settings: rating scale 0-9, two to three weeks after treatment
Method: as §3

[15] = system: GLXMA, Soybean, Glycine max, (L.) Merr.; experiment: Postemergence herbicidal evaluation (Example 147); settings: rating scale 0-9, two to three weeks after treatment
Method: as §3

[16] = system: ZEAMX, Field corn, Zea mays L.; experiment: Postemergence herbicidal evaluation (Example 147); settings: rating scale 0-9, two to three weeks after treatment
Method: as §3

[17] = system: AMBEL, Ragweed, Common, Ambrosia artemiisifolia, L.; experiment: Postemergence herbicidal evaluation (Example 147); settings: rating scale 0-9, two to three weeks after treatment
Method: as §3

[18] = system: CHEAL, Lambsquarters, Chenopodium album, L. Common; experiment: Postemergence herbicidal evaluation (Example 147); settings: rating scale 0-9, two to three weeks after treatment
Method: as §3

[19] = system: XANST, Cocklebur, Xanthium strumariam; experiment: Postemergence herbicidal evaluation (Example 147); settings: rating scale 0-9, two to three weeks after treatment
Method: as §3

[20] = system: IPOHE, Morningglory, Ivyleaf, Ipomoea hederacea, (L)Jacq.; experiment: Postemergence herbicidal evaluation (Example 147); settings: rating scale 0-9, two to three weeks after treatment
Method: as §3

[21] = system: ECHCG, Barnyardgrass, Echinochloa crusgalli, (L.)Beau; experiment: Postemergence herbicidal evaluation (Example 147); settings: rating scale 0-9, two to three weeks after treatment
Method: as §3

[22] = system: DIGSA, Crabgrass, (Hairy) L, Digitaria sanguinalis, (L)Scop; experiment: Postemergence herbicidal evaluation (Example 147); settings: rating scale 0-9, two to three weeks after treatment
Method: as §3

## CCCN(C)S(=O)(=O)NC(=O)c1cc(-n2c(=O)cc(C(F)(F)F)n(C)c2=O)c(F)cc1Cl [Example 67]
[1]; rate 0.125 kg/ha
  Preemergence herbicidal rating TRZAW: 0.0
[1]; rate 0.25 kg/ha
  Preemergence herbicidal rating TRZAW: 1.0
[2]; rate 0.125 kg/ha
  Preemergence herbicidal rating ABUTH: 9.0
[2]; rate 0.25 kg/ha
  Preemergence herbicidal rating ABUTH: 9.0
[3]; rate 0.125 kg/ha
  Preemergence herbicidal rating ALMOY: 0.0
[3]; rate 0.25 kg/ha
  Preemergence herbicidal rating ALMOY: 0.0
[4]; rate 0.125 kg/ha
  Preemergence herbicidal rating SETVI: 8.0
[4]; rate 0.25 kg/ha
  Preemergence herbicidal rating SETVI: 8.0
[5]; rate 0.125 kg/ha
  Preemergence herbicidal rating ZEAMX: 0.0
[5]; rate 0.25 kg/ha
  Preemergence herbicidal rating ZEAMX: 1.0
[6]; rate 0.125 kg/ha
  Preemergence herbicidal rating AMBEL: 9.0
[6]; rate 0.25 kg/ha
  Preemergence herbicidal rating AMBEL: 7.0
[7]; rate 0.125 kg/ha
  Preemergence herbicidal rating CHEAL: 9.0
[7]; rate 0.25 kg/ha
  Preemergence herbicidal rating CHEAL: 9.0
[8]; rate 0.125 kg/ha
  Preemergence herbicidal rating IPOHE: 9.0
[8]; rate 0.25 kg/ha
  Preemergence herbicidal rating IPOHE: 9.0
[9]; rate 0.125 kg/ha
  Preemergence herbicidal rating ECHCG: 8.0
[9]; rate 0.25 kg/ha
  Preemergence herbicidal rating ECHCG: 9.0
[10]; rate 0.125 kg/ha
  Preemergence herbicidal rating DIGSA: 7.0
[10]; rate 0.25 kg/ha
  Preemergence herbicidal rating DIGSA: 8.0
[11]; rate 0.016 kg/ha
  Postemergence herbicidal rating TRZAW: 6.5
[11]; rate 0.032 kg/ha
  Postemergence herbicidal rating TRZAW: 7.0
[12]; rate 0.016 kg/ha
  Postemergence herbicidal rating ABUTH: 9.0
[12]; rate 0.032 kg/ha
  Postemergence herbicidal rating ABUTH: 9.0
[13]; rate 0.016 kg/ha
  Postemergence herbicidal rating ALMOY: 2.0
[13]; rate 0.032 kg/ha
  Postemergence herbicidal rating ALMOY: 3.0
[14]; rate 0.016 kg/ha
  Postemergence herbicidal rating SETVI: 8.0
[14]; rate 0.032 kg/ha
  Postemergence herbicidal rating SETVI: 8.0
[15]; rate 0.016 kg/ha
  Postemergence herbicidal rating GLXMA: 8.0
[15]; rate 0.032 kg/ha
  Postemergence herbicidal rating GLXMA: 8.5
[16]; rate 0.016 kg/ha
  Postemergence herbicidal rating ZEAMX: 7.5
[16]; rate 0.032 kg/ha
  Postemergence herbicidal rating ZEAMX: 7.5
[17]; rate 0.016 kg/ha
  Postemergence herbicidal rating AMBEL: 9.0
[17]; rate 0.032 kg/ha
  Postemergence herbicidal rating AMBEL: 9.0
[18]; rate 0.016 kg/ha
  Postemergence herbicidal rating CHEAL: 9.0
[18]; rate 0.032 kg/ha
  Postemergence herbicidal rating CHEAL: 9.0
[19]; rate 0.016 kg/ha
  Postemergence herbicidal rating XANST: 9.0
[19]; rate 0.032 kg/ha
  Postemergence herbicidal rating XANST: 9.0
[20]; rate 0.016 kg/ha
  Postemergence herbicidal rating IPOHE: 9.0
[20]; rate 0.032 kg/ha
  Postemergence herbicidal rating IPOHE: 9.0
[21]; rate 0.016 kg/ha
  Postemergence herbicidal rating ECHCG: 8.0
[21]; rate 0.032 kg/ha
  Postemergence herbicidal rating ECHCG: 8.0
[22]; rate 0.016 kg/ha
  Postemergence herbicidal rating DIGSA: 6.0
[22]; rate 0.032 kg/ha
  Postemergence herbicidal rating DIGSA: 6.0

## Cn1c(C(F)(F)F)cc(=O)n(-c2cc(C(=O)NS(=O)(=O)NC(C)(C)C)c(Cl)cc2F)c1=O [Example 65]
[1]; rate 0.125 kg/ha
  Preemergence herbicidal rating TRZAW: 1.0
[1]; rate 0.25 kg/ha
  Preemergence herbicidal rating TRZAW: 1.0
[2]; rate 0.125 kg/ha
  Preemergence herbicidal rating ABUTH: 9.0
[2]; rate 0.25 kg/ha
  Preemergence herbicidal rating ABUTH: 9.0
[3]; rate 0.125 kg/ha
  Preemergence herbicidal rating ALMOY: 0.0
[3]; rate 0.25 kg/ha
  Preemergence herbicidal rating ALMOY: 0.0
[4]; rate 0.125 kg/ha
  Preemergence herbicidal rating SETVI: 3.0
[4]; rate 0.25 kg/ha
  Preemergence herbicidal rating SETVI: 6.0
[5]; rate 0.125 kg/ha
  Preemergence herbicidal rating ZEAMX: 0.0
[5]; rate 0.25 kg/ha
  Preemergence herbicidal rating ZEAMX: 1.0
[6]; rate 0.125 kg/ha
  Preemergence herbicidal rating AMBEL: 9.0
[6]; rate 0.25 kg/ha
  Preemergence herbicidal rating AMBEL: 9.0
[7]; rate 0.125 kg/ha
  Preemergence herbicidal rating CHEAL: 9.0
[7]; rate 0.25 kg/ha
  Preemergence herbicidal rating CHEAL: 9.0
[8]; rate 0.125 kg/ha
  Preemergence herbicidal rating IPOHE: 9.0
[8]; rate 0.25 kg/ha
  Preemergence herbicidal rating IPOHE: 9.0
[9]; rate 0.125 kg/ha
  Preemergence herbicidal rating ECHCG: 8.0
[9]; rate 0.25 kg/ha
  Preemergence herbicidal rating ECHCG: 9.0
[10]; rate 0.125 kg/ha
  Preemergence herbicidal rating DIGSA: 7.0
[10]; rate 0.25 kg/ha
  Preemergence herbicidal rating DIGSA: 9.0
[11]; rate 0.016 kg/ha
  Postemergence herbicidal rating TRZAW: 5.5
[11]; rate 0.032 kg/ha
  Postemergence herbicidal rating TRZAW: 6.5
[12]; rate 0.016 kg/ha
  Postemergence herbicidal rating ABUTH: 9.0
[12]; rate 0.032 kg/ha
  Postemergence herbicidal rating ABUTH: 9.0
[13]; rate 0.016 kg/ha
  Postemergence herbicidal rating ALMOY: 2.0
[13]; rate 0.032 kg/ha
  Postemergence herbicidal rating ALMOY: 3.0
[14]; rate 0.016 kg/ha
  Postemergence herbicidal rating SETVI: 8.0
[14]; rate 0.032 kg/ha
  Postemergence herbicidal rating SETVI: 8.0
[15]; rate 0.016 kg/ha
  Postemergence herbicidal rating GLXMA: 8.0
[15]; rate 0.032 kg/ha
  Postemergence herbicidal rating GLXMA: 8.5
[16]; rate 0.016 kg/ha
  Postemergence herbicidal rating ZEAMX: 7.5
[16]; rate 0.032 kg/ha
  Postemergence herbicidal rating ZEAMX: 8.0
[17]; rate 0.016 kg/ha
  Postemergence herbicidal rating AMBEL: 9.0
[17]; rate 0.032 kg/ha
  Postemergence herbicidal rating AMBEL: 9.0
[18]; rate 0.016 kg/ha
  Postemergence herbicidal rating CHEAL: 8.0
[18]; rate 0.032 kg/ha
  Postemergence herbicidal rating CHEAL: 9.0
[19]; rate 0.016 kg/ha
  Postemergence herbicidal rating XANST: 9.0
[19]; rate 0.032 kg/ha
  Postemergence herbicidal rating XANST: 9.0
[20]; rate 0.016 kg/ha
  Postemergence herbicidal rating IPOHE: 9.0
[20]; rate 0.032 kg/ha
  Postemergence herbicidal rating IPOHE: 9.0
[21]; rate 0.016 kg/ha
  Postemergence herbicidal rating ECHCG: 8.0
[21]; rate 0.032 kg/ha
  Postemergence herbicidal rating ECHCG: 9.0
[22]; rate 0.016 kg/ha
  Postemergence herbicidal rating DIGSA: 6.0
[22]; rate 0.032 kg/ha
  Postemergence herbicidal rating DIGSA: 8.0
